According to patent US12329158B2, “Large-scale methods of uniformly coating packaging surfaces with a volatile antimicrobial to preserve food freshness” (AGROFRESH INC., priority 2013, dated 2025):
Values after ≈ are worked out from the molar mass of the structure shown. Like-named read-outs stand apart in the source and are kept apart here. Values belong to the molecule of their own block, whether it stands above or below them.

What was measured:
Type in all cases: cell-based
Botrytis cinerea [1] = assay: Volatile MIC assay (Example 10); settings: 72 h, read-out: MIC (mg/L) BOTRCI
Procedure: (§1) 12-Well (6.5 mL volume per well) microtiter plates are used for the in vitro inhibition assay for volatile antimicrobial compounds. A 3-mL volume of full-strength Potato Dextrose Agar (PDA) is added to each well. After cooling, 1 μL of 1×10^5 per mL Botrytis cinerea and Penicillium expansum spore suspension is spot-pipetted to the center of the agar. Plates are inoculated immediately prior to volatile fungicide treatment. A Whatman #1 filter disk (Cat. No. 1001-0155) is placed, in duplicate, on the underside of a polyethylene PCR plate sealing film. […] The headspace around the inoculum is then sealed inside the well by the film with the adhering disk containing the fungicide by inverting the plates over the treated disks and sealing to prevent any of the chemical from flaking from the disk and falling onto the inoculated agar. After 3 days of storage at 23° C., the cultures are evaluated for percent growth relative to control based on measurement of fungal colony diameter.

Penicillium expansum [2] = assay: Volatile MIC assay (Example 10); settings: 72 h, read-out: MIC (mg/L) PENIEX
Procedure: as §1

B. cinerea = assay: In vitro contact assay, amended agar (Example 24); settings: Botrytis cinerea, 72 h, read-out: Contact MIC (mg/L) B. cinerea
Procedure: (§2) Contact assay: 6-well (16.5 mL volume per well) microtiter plates are used for an in vitro inhibition assay. […] A 7.5-mL volume of the amended media is added to each well of the microtiter plate. […] The plates are sealed with a clear film and incubated for 3 days at 23° C. After incubation, plates are evaluate for percent growth relative to acetone only control.

P. expansum = assay: In vitro contact assay, amended agar (Example 24); settings: Penicillium expansum, 72 h, read-out: Contact MIC (mg/L) P. expansum
Procedure: as §2

Botrytis cinerea [3] = assay: In vitro volatile assay (Example 24); settings: 72 h, headspace, 100% control, 3 days at 23 C, read-out: Volatile MIC (mg/L) B. cinerea
Procedure: (§3) Volatile assay: 12-well (6.5 mL volume per well) microtiter plates are used. A 3-mL volume of half strength PDA is added to each well. […] A Whatman #1 filter disk (Cat. No. 1001-0155) is placed, in duplicate, on the underside of a polyethylene PCR plate sealing film. […] The acetone is permitted to evaporate for 5 minutes. The headspace around the inoculum is then sealed inside the well by the film with the adhering disk containing the fungicide. Plates are inverted, placed over the treated disks, and sealed to prevent any of the chemical from flaking from the disk and falling onto the inoculated agar. […] Contact assay: 6-well (16.5 mL volume per well) microtiter plates are used for an in vitro inhibition assay. […] A 7.5-mL volume of the amended media is added to each well of the microtiter plate. […] The plates are sealed with a clear film and incubated for 3 days at 23° C. After incubation, plates are evaluate for percent growth relative to acetone only control.

Penicillium expansum [4] = assay: In vitro volatile assay (Example 24); settings: 72 h, headspace, 100% control, 3 days at 23 C, read-out: Volatile MIC (mg/L) P. expansum
Procedure: as §3

Alternaria alternata = assay: Volatile MIC assay (Example 9); settings: 72 h, headspace concentration, 3 days at 23 C, read-out: MIC (mg/L) ALTEAL
Procedure: (§4) A 3-mL volume of full-strength Potato Dextrose Agar (PDA) is added to each well. […] Plates are inoculated immediately prior to volatile fungicide treatment. A Whatman #1 filter disk (Cat. No. 1001-0155) is placed, in duplicate, on the underside of a polyethylene PCR plate sealing film. […] The acetone is permitted to evaporate for 5 minutes. The headspace around the inoculum is then sealed inside the well by the film with the adhering disk containing the fungicide by inverting the plates over the treated disks and sealing to prevent any of the chemical from flaking from the disk and falling onto the inoculated agar.

Botrytis cinerea [5] = assay: Volatile MIC assay (Example 9); settings: 72 h, headspace concentration, 3 days at 23 C, read-out: MIC (mg/L) BOTRCI
Procedure: as §4

Monilinia fructicola = assay: Volatile MIC assay (Example 9); settings: 72 h, headspace concentration, 3 days at 23 C, read-out: MIC (mg/L) MONIFC
Procedure: as §4

Penicillium expansum [6] = assay: Volatile MIC assay (Example 9); settings: 72 h, headspace concentration, 3 days at 23 C, read-out: MIC (mg/L) PENIEX
Procedure: as §4

Botrytis cinerea [7] = assay: In vitro inhibition assay for volatile fungicide, 12-well plates (Example 7); settings: volatile; 14 days at 4 C
Procedure: For testing activity against fungi pathogens, an in vitro inhibition assay for volatile antimicrobial compounds is developed using 12-Well (7 milliliter (mL) volume per well) microtiter plates. A 3-mL volume of full-strength Potato Dextrose Agar (PDA) is added to each well. After cooling, 1 microliter (μL) of 1×10^6 per mL Botrytis cinerea spore suspension is spot pipetted to the center of the agar. For the first experiment, inoculated plates are allowed to germinate for 5 days at 4° C. For the second experiment, plates are inoculated immediately prior to volatile fungicide treatment. Small Whatman #1 filter disks (Cat. No. 1001-0155) are placed, in duplicate, on the underside of a polyethylene PCR plate sealing film.
The acetone is permitted to evaporate for 5 minutes. The headspace around the Botrytis cinerea inoculum is then sealed inside the well by the film with the adhering disk containing the fungicide. Plates are inverted, placed over the treated disks and sealed to prevent any of the chemical from flaking from the disk and falling onto the inoculated agar. After 14 days of storage at 4° C., cultures are evaluated for percent growth relative to control. […]

[8] = volatile treatment, 3 days at 23 C
[9] = amended agar, 100% control, 3 days at 23 C

MIC (Botrytis cinerea [1]; [8]): 1.1 mg/L (≈ 4.53 µM)
MIC (Penicillium expansum [2]; [8]): 8.9 mg/L (≈ 36.6 µM)
Structure (SMILES): Nc1ccccc1OB1OCc2cc(F)ccc21 [Compound 116]

Structure (SMILES): O[B@@-]1([NH2+]Cc2ccccc2)OCc2ccccc21 [Compound 121]
MIC (Botrytis cinerea [1]; [8]): 4.5 mg/L (≈ 18.7 µM)
MIC (Penicillium expansum [2]; [8]): 17.9 mg/L (≈ 74.2 µM)
MIC (B. cinerea; [9]): 10 mg/L (≈ 41.5 µM)
MIC (P. expansum; [9]): 10 mg/L (≈ 41.5 µM)
MIC (Botrytis cinerea [3]): 4.5 mg/L (≈ 18.7 µM)
MIC (Penicillium expansum [4]): 17.9 mg/L (≈ 74.2 µM)

Structure (SMILES): C[Si](C)(C)OB1OCc2ccccc21 [Compound 122]
MIC (Botrytis cinerea [1]): 2.2 mg/L (≈ 10.7 µM)

MIC (Botrytis cinerea [1]; [8]): 4.5 mg/L (≈ 26.7 µM)
MIC (Penicillium expansum [2]; [8]): 8.9 mg/L (≈ 52.9 µM)
MIC (B. cinerea; [9]): 2 mg/L (≈ 11.9 µM)
MIC (P. expansum; [9]): 2 mg/L (≈ 11.9 µM)
MIC (Botrytis cinerea [3]): 4.5 mg/L (≈ 26.7 µM)
MIC (Penicillium expansum [4]): 8.9 mg/L (≈ 52.9 µM)
Structure (SMILES): OB1OCc2cc(Cl)ccc21 [Compound 124]

MIC (Botrytis cinerea [1]; [8]): 2.2 mg/L (≈ 10.4 µM)
MIC (Penicillium expansum [2]; [8]): 4.5 mg/L (≈ 21.2 µM)
Structure (SMILES): Fc1ccc2c(c1)COB2c1ccccc1 [Compound 127]

MIC (Botrytis cinerea [1]; [8]): 4.5 mg/L (≈ 27.8 µM)
MIC (Penicillium expansum [2]; [8]): 8.9 mg/L (≈ 54.9 µM)
Structure (SMILES): C=CB1OCc2cc(F)ccc21 [Compound 129]

Structure (SMILES): N#C[B-]1(O)OCc2cc(F)ccc21.[K+] (centres unmarked) [Compound 130]
MIC (Botrytis cinerea [1]): 1.1 mg/L
MIC (Penicillium expansum [2]): 4.5 mg/L
MIC (B. cinerea): 2 mg/L
MIC (P. expansum): 0.4 mg/L

Structure (SMILES): N#C[B-]1(O)OCc2cc(F)ccc21.[Na+] (centres unmarked) [Compound 132]
MIC (B. cinerea; [9]): 2 mg/L
MIC (P. expansum; [9]): 2 mg/L
MIC (Botrytis cinerea [3]): 1.1 mg/L
MIC (Penicillium expansum [4]): 4.5 mg/L

MIC (Botrytis cinerea [1]; [8]): 8.9 mg/L (≈ 38.7 µM)
MIC (Penicillium expansum [2]; [8]): 35.7 mg/L (≈ 155 µM)
Structure (SMILES): Fc1ccc(B2OCc3cc(F)ccc32)cc1 [Compound 133]

MIC (Botrytis cinerea [1]; [8]): 17.9 mg/L (≈ 77.8 µM)
MIC (Penicillium expansum [2]; [8]): > 35.7 mg/L
Structure (SMILES): Fc1cccc(B2OCc3cc(F)ccc32)c1 [Compound 134]

MIC (Botrytis cinerea [1]; [8]): 17.9 mg/L (≈ 73.9 µM)
MIC (Penicillium expansum [2]; [8]): > 35.7 mg/L
MIC (B. cinerea; [9]): 2 mg/L (≈ 8.26 µM)
MIC (P. expansum; [9]): 2 mg/L (≈ 8.26 µM)
MIC (Botrytis cinerea [3]): 17.9 mg/L (≈ 73.9 µM)
MIC (Penicillium expansum [4]): > 35.7 mg/L
Structure (SMILES): COc1ccc(B2OCc3cc(F)ccc32)cc1 [Compound 135]

MIC (Botrytis cinerea [1]; [8]): 8.9 mg/L (≈ 36.8 µM)
MIC (Penicillium expansum [2]; [8]): > 35.7 mg/L
Structure (SMILES): COc1cccc(B2OCc3cc(F)ccc32)c1 [Compound 136]

MIC (Botrytis cinerea [1]; [8]): 0.3 mg/L (≈ 1.7 µM)
MIC (Penicillium expansum [2]; [8]): 1.1 mg/L (≈ 6.25 µM)
Structure (SMILES): C=C(C)B1OCc2cc(F)ccc21 [Compound 137]

MIC (Alternaria alternata): 7.3 mg/L (≈ 48 µM)
MIC (Botrytis cinerea [5]): 10.6 mg/L (≈ 69.8 µM)
MIC (Monilinia fructicola): 6.3 mg/L (≈ 41.5 µM)
MIC (Penicillium expansum [6]): 68.3 mg/L (≈ 450 µM)
Structure (SMILES): OB1OCc2ccc(F)cc21 [Compound 200]

MIC (Botrytis cinerea [1]; [8]): 35.7 mg/L (≈ 235 µM)
MIC (Penicillium expansum [2]; [8]): 143 mg/L (≈ 941 µM)
Structure (SMILES): OB1OCc2c(F)cccc21 [Compound 202]

MIC (Botrytis cinerea [1]; [8]): 8.9 mg/L (≈ 58.6 µM)
MIC (Penicillium expansum [2]; [8]): 143 mg/L (≈ 941 µM)
Structure (SMILES): OB1OCc2cccc(F)c21 [Compound 203]

MIC (Botrytis cinerea [1]; [8]): 8.9 mg/L (≈ 52.4 µM)
MIC (Penicillium expansum [2]; [8]): > 35.7 mg/L
Structure (SMILES): OB1OCc2cc(F)c(F)cc21 [Compound 204]

Structure (SMILES): OB1OCc2ccccc21 [Compound B2, 2-(hydroxymethyl)phenylboronic acid cyclic monoester]
Rate giving 100% in vitro inhibition of Botrytis cinerea (Botrytis cinerea [7]): 0.0078 mg/disk

MIC (B. cinerea; [9]): 0.4 mg/L (≈ 1.21 µM)
MIC (P. expansum; [9]): 2 mg/L (≈ 6.06 µM)
MIC (Botrytis cinerea [3]): 0.6 mg/L (≈ 1.82 µM)
MIC (Penicillium expansum [4]): 8.9 mg/L (≈ 27 µM)
Structure (SMILES): Fc1ccc2c(c1)COB2OCCOB1OCc2cc(F)ccc21 [Compound B]
